Laboratory results published in patent publication US20090209460A1, “COMPOSITIONS AND METHODS FOR TREATING OBESITY AND RELATED METABOLIC DISORDERS” (Amylin Pharmaceuticals, Inc., priority 2005, published 2009).
Residues, ends and D or L forms follow the SMILES beside them.

Columns and labels:
[1] = tested on: mice with diet induced obesity (mouse DIO); test: cumulative food intake in mouse DIO after IP injection (FIGS. 6 and 7); type: in vivo; settings: injected IP at t=0; measured at 30, 60, 120 and 180 min
Method: The activities of the following compounds are shown: A, [MimicB36] FN38; B, [His37] FN38; C,
[His35] FN38; D, [Phe33] FN38; E, [Val33] FN38; F, Des-(Ser6,Lys7,Thr8,Gln9) FN38; G, Des-Val16,Val17-FN38; H, [Phe31] FN38; I, Des-(Val16,Val17,Phe24,Ala25,Ser26,Gln27) FN38; J, Des-(Phe1,Leu2,Phe3,His4)FN38; and K, Des-(Phe24,Ala25,Ser26,Gln27)-FN38. […] Points represent mean±sd of n=4 cages (3 mice/cage). Peptide was injected IP at t=0. Food was introduced immediately after injection and amount consumed measured at t=30, 60, 120, and 180 min. In the figure, * p<0.05 vs. vehicle control; ANOVA, Dunnett's test.

NIH/Swiss mice = test: acute food intake assay, lean overnight-fasted NIH/Swiss mice, intraperitoneal injection; type: in vivo, mouse; settings: mouse assay, dose of 200 mg/kg, measured at 60 minutes
Procedure, shortened: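 Overnight-fasted lean female NIH/Swiss mice (8-24 weeks, group housed) received vehicle or peptide intraperitoneally at time 0, then pre-weighed standard chow. Food consumed was weighed at 30, 60 and 120 min and expressed as % change versus control.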

[2] = brush border membrane (BBM) stability assay; type: in vitro ADME, human; settings: brush border membrane extract (e.g. kidney); percent compound remaining after a 5 hour incubation, human brush border membrane assay; read-out: hBBM
Procedure, shortened: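 Peptides digested up to 5 h at 37 °C with human brush border membrane extract (e.g. kidney). Timepoints quenched with 50% ACN, 1% FA, centrifuged, intact peptide quantified by selected-ion mass spectrometry. Expressed as percent stable.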

Row | remaining at 5 h [2] [%] | SMILES | cumulative food intake in mouse DIO (FIGS. 6A, 6B, 7A, 7B) [1] | Food Intake Inhibition (NIH/Swiss mice) [%]
1 | 67 | CC(C)C[C@H](NC(=O)[C@H](CCCCN)NC(=O)[C@H](CCC(N)=O)NC(=O)[C@@H](NC(=O)[C@H](CCCCN)NC(=O)[C@H](CO)NC(=O)[C@H](Cc1ccc(O)cc1)NC(=O)[C@H](Cc1c[nH]cn1)NC(=O)[C@H](Cc1ccccc1)NC(=O)[C@H](CC(C)C)NC(=O)[C@@H](N)Cc1ccccc1)[C@@H](C)O)C(=O)NCC(=O)N[C@@H](CCCCN)C(=O)N[C@@H](CO)C(=O)N[C@@H](CC(N)=O)C(=O)N[C@H](C(=O)N[C@H](C(=O)N[C@@H](CCC(=O)O)C(=O)N[C@@H](CCC(=O)O)C(=O)N[C@@H](CC(C)C)C(=O)N[C@@H](CCC(N)=O)C(=O)N[C@@H](CO)C(=O)N1CCC[C@H]1C(=O)N[C@@H](Cc1ccccc1)C(=O)N[C@@H](C)C(=O)N[C@@H](CO)C(=O)N[C@@H](CCC(N)=O)C(=O)N[C@@H](CO)C(=O)N[C@@H](CCCNC(=N)N)C(=O)NCC(=O)N[C@@H](Cc1ccc(O)cc1)C(=O)N[C@@H](Cc1ccccc1)C(=O)N[C@@H](Cc1ccccc1)C(=O)N[C@@H](Cc1ccccc1)C(=O)N[C@@H](CCCNC(=N)N)C(=O)N1CCC[C@H]1C(=O)N[C@@H](CCCNC(=N)N)C(=O)N[C@@H](CC(N)=O)C(N)=O)C(C)C)C(C)C [[Phe33]FN38] (H-FLFHYSKTQKLGKSNVVEELQSPFASQSRGYFFFRPRN-NH2; N-terminus assumed) | either not active or weakly active | −32
2 | 95 | CC(C)C[C@H](NC(=O)[C@H](Cc1ccccc1)NC(=O)[C@H](Cc1ccc(O)cc1)NC(=O)CNC(=O)[C@H](CCCNC(=N)N)NC(=O)[C@H](CO)NC(=O)[C@H](CCC(N)=O)NC(=O)[C@H](CO)NC(=O)[C@H](C)NC(=O)[C@H](Cc1ccccc1)NC(=O)[C@H](CO)NC(=O)[C@H](Cc1ccc(O)cc1)NC(=O)[C@H](Cc1c[nH]cn1)NC(=O)[C@H](Cc1ccccc1)NC(=O)[C@H](CC(C)C)NC(=O)[C@@H](N)Cc1ccccc1)C(=O)N[C@@H](Cc1ccccc1)C(=O)N[C@@H](CCCNC(=N)N)C(=O)N1CCC[C@H]1C(=O)N[C@@H](CCCNC(=N)N)C(=O)N[C@@H](CC(N)=O)C(N)=O [Des-(Lys7-Pro23)FN38] (H-FLFHYSFASQSRGYFLFRPRN-NH2; N-terminus assumed) | reduction of cumulative food intake | −26
3 | 76 | CC(C)C[C@H](NC(=O)[C@H](CCCCN)NC(=O)[C@H](CCC(N)=O)NC(=O)[C@@H](NC(=O)[C@H](CCCCN)NC(=O)[C@H](CO)NC(=O)[C@H](Cc1ccc(O)cc1)NC(=O)[C@H](Cc1c[nH]cn1)NC(=O)[C@H](Cc1ccccc1)NC(=O)[C@H](CC(C)C)NC(=O)[C@@H](N)Cc1ccccc1)[C@@H](C)O)C(=O)NCC(=O)N[C@@H](CCCCN)C(=O)N[C@@H](CO)C(=O)N[C@@H](CC(N)=O)C(=O)N[C@@H](CCC(=O)O)C(=O)N[C@@H](CCC(=O)O)C(=O)N[C@@H](CC(C)C)C(=O)N[C@@H](CCC(N)=O)C(=O)N[C@@H](CO)C(=O)N1CCC[C@H]1C(=O)N[C@@H](CO)C(=O)N[C@@H](CCCNC(=N)N)C(=O)NCC(=O)N[C@@H](Cc1ccc(O)cc1)C(=O)N[C@@H](Cc1ccccc1)C(=O)N[C@@H](CC(C)C)C(=O)N[C@@H](Cc1ccccc1)C(=O)N[C@@H](CCCCN)C(=O)N1CCC[C@H]1C(=O)N[C@@H](CCCNC(=N)N)C(=O)N[C@@H](CC(N)=O)C(N)=O [Des-(Val16,Val17,Phe24-Gln27)[K35]FN38] (H-FLFHYSKTQKLGKSNEELQSPSRGYFLFKPRN-NH2; N-terminus assumed) | reduction of cumulative food intake | −54
